ChEMBL document CHEMBL1132634, “Bound structures of novel P3-P1' beta-strand mimetic inhibitors of thrombin” (J Med Chem, 1999)
pKi: −log10 of the molar value.

Experiments:
Prothrombin [1] = molecular target: T1, Prothrombin (Homo sapiens, UniProt P00734)
Description: Binding rate constant towards thrombin was determined

Prothrombin [2] = molecular target: T1, Prothrombin; test: Binding affinity towards thrombin was determined

Row | SMILES | k on (Prothrombin [1]) | pKi (Prothrombin [2])
1 | N=C(N)NCCC[C@H](NC(=O)[C@@H]1CCN2CC[C@@](N)(Cc3ccccc3)C(=O)N12)C(=O)C(=O)NCCc1ccccc1 | 640000 M⁻¹ s⁻¹ | 
2 | NCCCC[C@H](NC(=O)[C@@H]1CCN2CC[C@@](N)(Cc3ccccc3)C(=O)N12)C(=O)C(=O)NC1CCCCC1 | 1e+06 M⁻¹ s⁻¹ | 
3 | N=C(N)NCCC[C@H](NC(=O)[C@@H]1CC[C@@H]2CC[C@@](N)(Cc3ccccc3)C(=O)N21)C(=O)c1nc2ccccc2s1 |  | 9.19
